# Test results as given in the CheMixHub viscosity set.
# ± gives the uncertainty stated by the source.
# Experiment: xn = mol fraction of the nth substance listed
smiles,measurement,setting,value
ClC(Cl)(Cl)Cl + CO,viscosity,"298 K, 101.3 kPa, x1 = 0.1518",0.719 ± 0.009 mPa·s
same,viscosity,"298 K, 101.3 kPa, x1 = 0.2927",0.809 ± 0.01 mPa·s
same,viscosity,"298 K, 101.3 kPa, x1 = 0.4346",0.844 ± 0.01 mPa·s
same,viscosity,"298 K, 101.3 kPa, x1 = 0.5445",0.874 ± 0.01 mPa·s
same,viscosity,"298 K, 101.3 kPa, x1 = 0.6871",0.875 ± 0.009 mPa·s
same,viscosity,"298 K, 101.3 kPa, x1 = 0.761",0.858 ± 0.009 mPa·s
same,viscosity,"298 K, 101.3 kPa, x1 = 0.8784",0.867 ± 0.009 mPa·s
same,viscosity,"298.15 K, 101 kPa, x2 = 0.0367",0.877 ± 0.008 mPa·s
same,viscosity,"298.15 K, 101 kPa, x2 = 0.0708",0.871 ± 0.008 mPa·s
same,viscosity,"298.15 K, 101 kPa, x2 = 0.0886",0.869 ± 0.008 mPa·s
same,viscosity,"298.15 K, 101 kPa, x2 = 0.1063",0.865 ± 0.008 mPa·s
same,viscosity,"298.15 K, 101 kPa, x2 = 0.2",0.858 ± 0.023 mPa·s
same,viscosity,"298.15 K, 101 kPa, x2 = 0.2104",0.8395 ± 0.018 mPa·s
same,viscosity,"298.15 K, 101 kPa, x2 = 0.2547",0.857 ± 0.008 mPa·s
same,viscosity,"298.15 K, 101 kPa, x2 = 0.35",0.854 ± 0.022 mPa·s
same,viscosity,"298.15 K, 101 kPa, x2 = 0.375",0.8288 ± 0.018 mPa·s
same,viscosity,"298.15 K, 101 kPa, x2 = 0.4226",0.842 ± 0.008 mPa·s
same,viscosity,"298.15 K, 101 kPa, x2 = 0.46",0.846 ± 0.022 mPa·s
same,viscosity,"298.15 K, 101 kPa, x2 = 0.4787",0.839 ± 0.008 mPa·s
same,viscosity,"298.15 K, 101 kPa, x2 = 0.5069",0.8105 ± 0.017 mPa·s
same,viscosity,"298.15 K, 101 kPa, x2 = 0.55",0.831 ± 0.022 mPa·s
same,viscosity,"298.15 K, 101 kPa, x2 = 0.5618",0.815 ± 0.008 mPa·s
same,viscosity,"298.15 K, 101 kPa, x2 = 0.6107",0.807 ± 0.008 mPa·s
same,viscosity,"298.15 K, 101 kPa, x2 = 0.6154",0.7666 ± 0.016 mPa·s
same,viscosity,"298.15 K, 101 kPa, x2 = 0.6934",0.77 ± 0.008 mPa·s
same,viscosity,"298.15 K, 101 kPa, x2 = 0.7057",0.7387 ± 0.016 mPa·s
same,viscosity,"298.15 K, 101 kPa, x2 = 0.76",0.764 ± 0.02 mPa·s
same,viscosity,"298.15 K, 101 kPa, x2 = 0.7826",0.7057 ± 0.015 mPa·s
same,viscosity,"298.15 K, 101 kPa, x2 = 0.7853",0.719 ± 0.007 mPa·s
same,viscosity,"298.15 K, 101 kPa, x2 = 0.83",0.702 ± 0.019 mPa·s
same,viscosity,"298.15 K, 101 kPa, x2 = 0.8483",0.6886 ± 0.015 mPa·s
same,viscosity,"298.15 K, 101 kPa, x2 = 0.88",0.665 ± 0.018 mPa·s
same,viscosity,"298.15 K, 101 kPa, x2 = 0.9029",0.626 ± 0.006 mPa·s
same,viscosity,"298.15 K, 101 kPa, x2 = 0.9057",0.6477 ± 0.014 mPa·s
same,viscosity,"298.15 K, 101 kPa, x2 = 0.9065",0.6438 ± 0.0059 mPa·s
same,viscosity,"298.15 K, 101 kPa, x2 = 0.95",0.599 ± 0.016 mPa·s
same,viscosity,"298.15 K, 101 kPa, x2 = 0.9555",0.5806 ± 0.013 mPa·s
same,viscosity,"298.15 K, 101 kPa, x2 = 0.9571",0.5875 ± 0.0055 mPa·s
same,viscosity,"298.15 K, 101 kPa, x2 = 0.9616",0.577 ± 0.006 mPa·s
same,viscosity,"298.15 K, 101 kPa, x2 = 0.9788",0.5672 ± 0.0053 mPa·s
same,viscosity,"303.15 K, 101 kPa, x1 = 0.0355",0.54 ± 0.014 mPa·s
same,viscosity,"303.15 K, 101 kPa, x1 = 0.1574",0.594 ± 0.016 mPa·s
same,viscosity,"303.15 K, 101 kPa, x1 = 0.2723",0.665 ± 0.018 mPa·s
same,viscosity,"303.15 K, 101 kPa, x1 = 0.4653",0.71 ± 0.019 mPa·s
same,viscosity,"303.15 K, 101 kPa, x1 = 0.6066",0.76 ± 0.02 mPa·s
same,viscosity,"303.15 K, 101 kPa, x1 = 0.7506",0.766 ± 0.02 mPa·s
same,viscosity,"303.15 K, 101 kPa, x1 = 0.901",0.78 ± 0.021 mPa·s
same,viscosity,"303.15 K, 101 kPa, x2 = 0.0396",0.8187 ± 0.0066 mPa·s
same,viscosity,"303.15 K, 101 kPa, x2 = 0.0862",0.8054 ± 0.0064 mPa·s
same,viscosity,"303.15 K, 101 kPa, x2 = 0.1437",0.7973 ± 0.0063 mPa·s
same,viscosity,"303.15 K, 101 kPa, x2 = 0.2352",0.793 ± 0.0062 mPa·s
same,viscosity,"303.15 K, 101 kPa, x2 = 0.3077",0.7919 ± 0.0061 mPa·s
same,viscosity,"303.15 K, 101 kPa, x2 = 0.4129",0.7852 ± 0.0059 mPa·s
same,viscosity,"303.15 K, 101 kPa, x2 = 0.531",0.7677 ± 0.0057 mPa·s
same,viscosity,"303.15 K, 101 kPa, x2 = 0.6187",0.7443 ± 0.0054 mPa·s
same,viscosity,"303.15 K, 101 kPa, x2 = 0.6838",0.7184 ± 0.0052 mPa·s
same,viscosity,"303.15 K, 101 kPa, x2 = 0.824",0.6435 ± 0.0047 mPa·s
same,viscosity,"303.15 K, 101 kPa, x2 = 0.8821",0.6038 ± 0.0044 mPa·s
same,viscosity,"303.15 K, 101 kPa, x2 = 0.9292",0.5669 ± 0.0041 mPa·s
same,viscosity,"303.15 K, 101 kPa, x2 = 0.9728",0.5306 ± 0.0039 mPa·s
same,viscosity,"308.15 K, 101 kPa, x2 = 0.0367",0.764 ± 0.007 mPa·s
same,viscosity,"308.15 K, 101 kPa, x2 = 0.0708",0.756 ± 0.007 mPa·s
same,viscosity,"308.15 K, 101 kPa, x2 = 0.0886",0.755 ± 0.007 mPa·s
same,viscosity,"308.15 K, 101 kPa, x2 = 0.1063",0.749 ± 0.007 mPa·s
same,viscosity,"308.15 K, 101 kPa, x2 = 0.2547",0.738 ± 0.007 mPa·s
same,viscosity,"308.15 K, 101 kPa, x2 = 0.4226",0.724 ± 0.007 mPa·s
same,viscosity,"308.15 K, 101 kPa, x2 = 0.4787",0.72 ± 0.007 mPa·s
same,viscosity,"308.15 K, 101 kPa, x2 = 0.5618",0.7 ± 0.007 mPa·s
same,viscosity,"308.15 K, 101 kPa, x2 = 0.6107",0.691 ± 0.007 mPa·s
same,viscosity,"308.15 K, 101 kPa, x2 = 0.6934",0.656 ± 0.007 mPa·s
same,viscosity,"308.15 K, 101 kPa, x2 = 0.7853",0.619 ± 0.006 mPa·s
same,viscosity,"308.15 K, 101 kPa, x2 = 0.9029",0.543 ± 0.006 mPa·s
same,viscosity,"308.15 K, 101 kPa, x2 = 0.9616",0.502 ± 0.005 mPa·s
same,viscosity,"313.15 K, 101 kPa, x1 = 0.0355",0.54 ± 0.014 mPa·s
same,viscosity,"313.15 K, 101 kPa, x1 = 0.1574",0.594 ± 0.016 mPa·s
same,viscosity,"313.15 K, 101 kPa, x1 = 0.2723",0.665 ± 0.018 mPa·s
same,viscosity,"313.15 K, 101 kPa, x1 = 0.4653",0.71 ± 0.019 mPa·s
same,viscosity,"313.15 K, 101 kPa, x1 = 0.6066",0.76 ± 0.02 mPa·s
same,viscosity,"313.15 K, 101 kPa, x1 = 0.7506",0.766 ± 0.02 mPa·s
same,viscosity,"313.15 K, 101 kPa, x1 = 0.901",0.78 ± 0.021 mPa·s
same,viscosity,"313.15 K, 101.33 kPa, x2 = 0.105",0.7595 ± 0.02 mPa·s
same,viscosity,"313.15 K, 101.33 kPa, x2 = 0.193",0.7624 ± 0.02 mPa·s
same,viscosity,"313.15 K, 101.33 kPa, x2 = 0.303",0.75 ± 0.02 mPa·s
same,viscosity,"313.15 K, 101.33 kPa, x2 = 0.35",0.7427 ± 0.019 mPa·s
same,viscosity,"313.15 K, 101.33 kPa, x2 = 0.51",0.6955 ± 0.018 mPa·s
same,viscosity,"313.15 K, 101.33 kPa, x2 = 0.68",0.6248 ± 0.016 mPa·s
same,viscosity,"313.15 K, 101.33 kPa, x2 = 0.72",0.605 ± 0.016 mPa·s
same,viscosity,"313.15 K, 101.33 kPa, x2 = 0.79",0.57 ± 0.015 mPa·s
same,viscosity,"313.15 K, 101.33 kPa, x2 = 0.91",0.505 ± 0.013 mPa·s
same,viscosity,"318 K, 101.3 kPa, x1 = 0.1527",0.5328 ± 0.021 mPa·s
same,viscosity,"318 K, 101.3 kPa, x1 = 0.2949",0.6044 ± 0.023 mPa·s
same,viscosity,"318 K, 101.3 kPa, x1 = 0.4375",0.6446 ± 0.024 mPa·s
same,viscosity,"318 K, 101.3 kPa, x1 = 0.5566",0.6729 ± 0.025 mPa·s
same,viscosity,"318 K, 101.3 kPa, x1 = 0.7077",0.69 ± 0.025 mPa·s
same,viscosity,"318 K, 101.3 kPa, x1 = 0.8931",0.7164 ± 0.026 mPa·s
same,viscosity,"318.15 K, 101 kPa, x2 = 0.0367",0.672 ± 0.007 mPa·s
same,viscosity,"318.15 K, 101 kPa, x2 = 0.0708",0.664 ± 0.007 mPa·s
same,viscosity,"318.15 K, 101 kPa, x2 = 0.0886",0.67 ± 0.007 mPa·s
same,viscosity,"318.15 K, 101 kPa, x2 = 0.1063",0.657 ± 0.007 mPa·s
same,viscosity,"318.15 K, 101 kPa, x2 = 0.2547",0.643 ± 0.006 mPa·s
same,viscosity,"318.15 K, 101 kPa, x2 = 0.4226",0.63 ± 0.006 mPa·s
same,viscosity,"318.15 K, 101 kPa, x2 = 0.4787",0.623 ± 0.006 mPa·s
same,viscosity,"318.15 K, 101 kPa, x2 = 0.5618",0.607 ± 0.006 mPa·s
same,viscosity,"318.15 K, 101 kPa, x2 = 0.6107",0.598 ± 0.006 mPa·s
same,viscosity,"318.15 K, 101 kPa, x2 = 0.6934",0.57 ± 0.006 mPa·s
same,viscosity,"318.15 K, 101 kPa, x2 = 0.7853",0.537 ± 0.006 mPa·s
same,viscosity,"318.15 K, 101 kPa, x2 = 0.9029",0.476 ± 0.005 mPa·s
same,viscosity,"318.15 K, 101 kPa, x2 = 0.9616",0.44 ± 0.005 mPa·s
same,viscosity,"323.15 K, 101 kPa, x1 = 0.0355",0.51 ± 0.014 mPa·s
same,viscosity,"323.15 K, 101 kPa, x1 = 0.1574",0.543 ± 0.014 mPa·s
same,viscosity,"323.15 K, 101 kPa, x1 = 0.2723",0.612 ± 0.016 mPa·s
same,viscosity,"323.15 K, 101 kPa, x1 = 0.4653",0.642 ± 0.017 mPa·s
same,viscosity,"323.15 K, 101 kPa, x1 = 0.6066",0.682 ± 0.018 mPa·s
same,viscosity,"323.15 K, 101 kPa, x1 = 0.7506",0.698 ± 0.018 mPa·s
same,viscosity,"323.15 K, 101 kPa, x1 = 0.901",0.706 ± 0.019 mPa·s
